Measurements taken from patent US20260306459A1, “INHIBITORS OF NSUN1- AND NSUN2-MEDIATED ACTIVE STRUCTURES” (THE UNIVERSITY OF CHICAGO, priority 2023, published 2026).
“Also recorded” adds a separate entry of the source.

Key:
[1] = target: NSUN1-RNA:m5C interaction (Homo sapiens, UniProt P46087); test: PL-RCA-FCM, NSUN1-RNA:m5C interaction; type: cell-based
Text: (§1) FIGS. 5A-5G display a pipeline of computational design and functional screening of small-molecule compound libraries as well as exemplary characterization and validation of identified positive hit compounds and their targets. FIGS. 5A-5D display an exemplary experimental procedure, beginning with characterization of NSUN1 and/or NSUN2 putative binding modules for interaction with ACS components (FIGS. 5A-5B), a graphic displaying the design of a small molecule library and testing of the putative small molecule NSUN1/2-ACS inhibitors in cell lines (FIG. 5C), characterization of the NSUN1/2-ACS inhibitors interactions with the ACS machinery (FIG. 5D).
The PL-RCA-CM/imaging technique utilized in the inventors previous work (Cheng, J. X. et al., Nature Communications 2018) was suitable to visualize and semi-quantify the NSUN1/2-mediated ACS in cells. However, the previous technique had the disadvantage of having a low sensitivity and low throughput. To overcome this bottleneck, as described herein, the inventors developed NSUN1/2-targeting fluorescence quenching and release (FQR) plate assay (FIG. 6A) and PL-RCA flow cytometry (PL-RCA-FCM) technology (FIG. 6B) for screening of NSUN1/2-targeting drug libraries and quantitatively measuring NSUN1/2-mediated ACS with and without drugs in a lineage-specific and high-throughput manner. […]

[2] = system: SC cells; test: MTT growth inhibition in venetoclax-resistant monocytic leukemia cell line SC; type: cell-based, human
Text: FIGS. 8A-8B display a schematic of an 5-ethynyl uridine click chemistry (EC)-coupled flow cytometry (EC-FCM) assay (FIG. 8A), while FIG. 8B depicts the results of an EC-FCM assay showing distinct drug-specific signatures/patterns of nascent RNA synthesis inhibition in the venetoclax sensitive leukemia cell line (K1). The MTT assay measures cell viability and proliferation as well as cytotoxicity of compounds by assessing cellular metabolic activity. The associated measurement can be described as cell viability, cell killing, and/or growth inhibition.
(§2) FIGS. 11A-11D display scatter plot representations of screening results for AI-designed NSUN1-targeting compound libraries in a venetcoclax-resistant human myeloid leukemia cell line (SC), lung cancer cell line (H82), and venetoclax resistant human […], and a schematic representation of categorization of the results. A human myeloid leukemia cell Line (SC), a lung cancer cell line (H82 or K562) were both incubated at drug concentration 10 μM/μL overnight. MTT assays were performed after 24 hours, and changes were calculated as the percentage of mean absorbance (n=3) versus mean absorbance of drug-free control (n=3). Negative outliers indicated in red ovals. FIG. 11A depicts the results of an NSUN1-targeting drug library, 74 drugs, comparing growth/inhibition in H-82 (Y axis) and SC (X axis) cell lines. FIG. 11B depicts the results of an NSUN2-targeting drug library, 102 drugs, comparing growth/inhibition in H-82 (Y axis) and SC (X axis) cell lines. FIG. 11C depicts the results of an NSUN1-targeting drug library, 74 drugs, comparing growth/inhibition in K562 (Y axis) and SC (X axis) cell lines. FIG. 11D is a schematic representation showing categorization of the results from screens performed as described in FIG. 11, and validation experiments as described in FIG. 12.
(§3) FIGS. 12A-12J display bar graphs displaying the results of validation experiments for small molecule inhibitors of NSUN1/2-ACS interactions as identified herein. Drug validation of select SC, H82, and/or K562 inhibiting compounds in mouse acute myeloid leukemia cell Line (C1498), SC cells, H82 cells, and/or K562 cells. NSUN1-17 and/or venetoclax acted as controls. Inhibition of cell vitality was identified as dose-dependent for certain small molecules, not merely cytotoxic. In brief, stock with concentration 0.4×10^6 test (e.g., SC, H82, K562, or C1498, as labelled) cells/mL, and 10 μM/μL drug was serially diluted into drug-free cell stock to reach concentrations of 1 μM/μL and […] and split into 100 μL volumes in a 96-well plate. MTT assays performed after 24 hour incubation. Percentages calculated as a difference in mean absorbance of each drug triplicate and mean absorbance in drug-free cell triplicate. Red bars represent standard errors. The concentration of drug represented by each column is from left to right as written in the figure keys. FIGS. 12A-12E provide results from independent repeats for different groupings of small molecules tested against C1498 cells. FIGS. 12F-12G provide results from independent repeats for different groupings of small molecules tested against H82 cells. FIGS. […] provide results from independent repeats for different groupings of small molecules tested against SC cells. FIG. 12J provide results from an assay against K562 cells.
The inventors then designed a protocol for functional screening of NSUN1/2-targeting supercomputing/AI-derived compound libraries as schematically presented in FIGS. 5A-5G. Briefly, the library compounds were obtained from various chemical companies/vendors and dissolved in DMSO, and then applied to 96-well plates that contained leukemia and/or other cancer cells that were resistant to venetoclax. […]

[3] = system: leukemia and lung cancer cell lines; test: Functional (MTT) screening of NSUN1/2-targeting libraries in leukemia and lung cancer cell lines; type: cell-based, human; conditions: multiple leukemia lines and/or lung cancer cell lines
Experimental: as §2, §3
The inventors then designed a protocol for functional screening of NSUN1/2-targeting supercomputing/AI-derived compound libraries as schematically presented in FIGS. 5A-5G. Briefly, the library compounds were obtained from various chemical companies/vendors and dissolved in DMSO, and then applied to 96-well plates that contained leukemia and/or other cancer cells that were resistant to venetoclax. Both the routine colorimetric assay (MTT assay) and the newly developed NSUN1/2-targeting fluorescence quenching and release (FQR) assay were performed to select bioactive compounds for further quantitative study to confirm that they targetNSUN1/2 and their associated ACS. As described below, the compound libraries screened through cancer cell proliferation and/or NSUN1/2 localization to the ACS successfully identified numerous promising compounds that can inhibit the leukemia cell growth and appear to target the NSUN1-mediated ACS (see Table 2). This success has proven the feasibility and efficacy of the described supercomputing/AI design and functional screening of the NSUN1/2-targeting drug libraries. In some aspects, screening is conducted using drug-resistant cell lines. […]

[4] = target: T1, NSUN1-eRNAPII interaction (Homo sapiens, UniProt P46087); test: PL-RCA-FCM, NSUN1-eRNAPII interaction; type: cell-based
T1 construct: RNAPII
Text: as §1
(§4) Black=negative control, blue=positive control, no drug=red.
(§5) The PL-RCA-CM/imaging technique utilized in the inventors previous work (Cheng, J. X. et al., Nature Communications 2018) was suitable to visualize and semi-quantify the NSUN1/2-mediated ACS in cells. […] To overcome this bottleneck, as described herein, the inventors developed NSUN1/2-targeting fluorescence quenching and release (FQR) plate assay (FIG. 6A) and PL-RCA flow cytometry (PL-RCA-FCM) technology (FIG. 6B) for screening of NSUN1/2-targeting drug libraries and quantitatively measuring NSUN1/2-mediated ACS with and without drugs in a lineage-specific and high-throughput manner. […]

[5] = target: T2, NSUN2-RNA polymerase II (RNAPII) interaction (Homo sapiens, UniProt Q08J23); test: PL-RCA-FCM, NSUN2-RNAPII interaction; type: cell-based
T2 construct: RNAPII CTD2-S2P
Text: as §4
The PL-RCA-CM/imaging technique utilized in the inventors previous work (Cheng, J. X. et al., Nature Communications 2018) was suitable to visualize and semi-quantify the NSUN1/2-mediated ACS in cells. However, the previous technique had the disadvantage of having a low sensitivity and low throughput. To overcome this bottleneck, as described herein, the inventors developed NSUN1/2-targeting fluorescence quenching and release (FQR) plate assay (FIG. 6A) and PL-RCA flow cytometry (PL-RCA-FCM) technology (FIG. 6B) for screening of NSUN1/2-targeting drug libraries and quantitatively measuring NSUN1/2-mediated ACS with and without drugs in a lineage-specific and high-throughput manner. The new PL-RCA-FCM detected very strong PL-RCA signals (>2 logs) of the NSUN2-mediated interactions with m5C, RNAPII CTD2-S2P and BRD4, particularly in the venetoclax-resistant leukemia cells (SC) (FIG. 6C), in comparison to the venetoclax-sensitive K1 cells (FIG. 6D).

[6] = target: NSUN1-c-MYC interaction (Homo sapiens, UniProt P46087); test: PL-RCA-FCM, NSUN1-c-MYC interaction; type: cell-based
Text: as §1, §4, §5

[7] = system: NSUN1 and NSUN2 binding modules; test: Synergy experiments; conditions: besides the NSUN1 A-460 binding module
Text: Without being limited by theory, this may potentially be why NSUN1-17 is effective in multiple different cancer types.

T1 sequence (P46087 whole entry): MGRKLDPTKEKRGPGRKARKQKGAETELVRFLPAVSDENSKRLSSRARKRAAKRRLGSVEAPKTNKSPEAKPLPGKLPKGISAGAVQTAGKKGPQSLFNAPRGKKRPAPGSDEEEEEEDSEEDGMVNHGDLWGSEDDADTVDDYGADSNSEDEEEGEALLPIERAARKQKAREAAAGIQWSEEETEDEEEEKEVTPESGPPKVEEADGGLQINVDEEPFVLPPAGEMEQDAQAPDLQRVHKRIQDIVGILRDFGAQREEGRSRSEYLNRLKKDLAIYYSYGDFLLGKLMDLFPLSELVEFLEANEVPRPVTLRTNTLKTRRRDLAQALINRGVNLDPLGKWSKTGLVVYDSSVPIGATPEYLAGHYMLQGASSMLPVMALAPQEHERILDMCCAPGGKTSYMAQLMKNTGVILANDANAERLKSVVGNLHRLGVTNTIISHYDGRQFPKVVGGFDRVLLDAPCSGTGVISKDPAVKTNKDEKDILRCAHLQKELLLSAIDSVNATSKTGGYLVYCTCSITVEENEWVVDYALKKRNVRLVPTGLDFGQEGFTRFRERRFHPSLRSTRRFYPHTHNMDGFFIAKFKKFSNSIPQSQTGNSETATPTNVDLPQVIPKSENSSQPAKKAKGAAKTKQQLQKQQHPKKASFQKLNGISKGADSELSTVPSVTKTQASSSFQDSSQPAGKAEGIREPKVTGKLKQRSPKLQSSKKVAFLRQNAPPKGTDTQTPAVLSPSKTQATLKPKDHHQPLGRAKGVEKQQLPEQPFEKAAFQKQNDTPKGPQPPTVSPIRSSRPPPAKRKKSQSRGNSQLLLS
NSUN1-c-MYC interaction, sequence (P46087 whole entry): as above
NSUN1-RNA:m5C interaction, sequence (P46087 whole entry): as above
T2 sequence (Q08J23 whole entry): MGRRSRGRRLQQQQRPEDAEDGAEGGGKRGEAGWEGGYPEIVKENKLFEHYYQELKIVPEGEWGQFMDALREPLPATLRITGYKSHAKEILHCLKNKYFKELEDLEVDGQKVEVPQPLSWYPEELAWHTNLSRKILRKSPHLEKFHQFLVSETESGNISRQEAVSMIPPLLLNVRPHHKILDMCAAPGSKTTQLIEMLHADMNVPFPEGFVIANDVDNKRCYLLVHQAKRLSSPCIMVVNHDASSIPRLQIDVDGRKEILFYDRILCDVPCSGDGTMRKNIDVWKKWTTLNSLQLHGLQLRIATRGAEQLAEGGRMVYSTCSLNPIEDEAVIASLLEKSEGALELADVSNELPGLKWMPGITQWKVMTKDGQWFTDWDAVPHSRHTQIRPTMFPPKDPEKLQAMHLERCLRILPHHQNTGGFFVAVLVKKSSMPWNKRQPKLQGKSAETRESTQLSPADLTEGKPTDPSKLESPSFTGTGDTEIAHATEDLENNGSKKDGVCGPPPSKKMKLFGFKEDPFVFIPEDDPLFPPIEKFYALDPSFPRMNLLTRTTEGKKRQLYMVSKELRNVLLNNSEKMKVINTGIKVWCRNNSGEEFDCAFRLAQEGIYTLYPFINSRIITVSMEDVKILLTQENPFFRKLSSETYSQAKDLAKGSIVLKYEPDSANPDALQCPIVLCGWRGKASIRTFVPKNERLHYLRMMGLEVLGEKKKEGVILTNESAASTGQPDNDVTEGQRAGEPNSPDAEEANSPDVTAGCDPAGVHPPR

With `Cc1[nH]nc2ccc(-c3cncc(OC[C@@H](N)Cc4c[nH]c5ccccc45)c3)cc12` [NSUN1-17] the “Effect on NSUN1 interaction with RNA:m5C” value [1] was “but not the interaction between NSUN1 and RNA m5C; also recorded: little effects”, the “Inhibition of growth of venetoclax-resistant leukemia (SC) cells” value [2] was “inhibition of the growth of venetoclax-resistant SC cells; also recorded: inhibit drug (venetoclax)-resistant leukemia cells” and the “Efficacy of tumor cell growth inhibition” value [3] was “high-efficacy of tumor cell growth inhibition”. The “Effect on NSUN1 interaction with eRNAPII/RNAPII” value [4] was “inhibited the interaction; also recorded: can only disrupt the NSUN1-mediated interaction; also recorded: effectively disrupted”, the “Effect on NSUN2-mediated interaction with RNA polymerase II” value [5] was “not the NSUN-2 mediated interaction” and the “Effect on NSUN1 interaction with c-MYC” value [6] was “inhibited the interaction; also recorded: can only disrupt the NSUN1-mediated interaction; also recorded: effectively disrupted”. For the same molecule, the “Binding modules targeted, from synergy experiments” value [7] was “likely to target multiple binding modules in both NSUN1 and NSUN2”.
